Measurements published in patent publication US20150182525A1, “4-Amino-5-Fluoro-3-[6-(4-Methylpiperazin-1-YL)-1H-Benzimidazol-2-YL]-1H-Quinolin-2-one for use in the Treatment of Adenoid Cystic Carcinoma” (priority 2011, published 2015).
Entries after “also recorded” stand apart in the source; their conditions may differ.

Experiments:
[1] = test system: ACCx6 xenograft tumor line; assay: ACCx6 adenoid cystic carcinoma xenograft efficacy study in nude mice; format: in vivo; settings: 50 mg/kg p.o. qd x28; D28; P<0.001 as compared to 5/10 mg/kg docetaxel monotherapy
Procedure: The tumors are maintained by engraftment in nude mice. A 1 mm^3 fragment is implanted subcutaneously in the right flank of each test animal The tumors are measured with calipers twice weekly, and daily as the mean volume approached 100-150 mm^3 Seven days after tumor cell implantation, on D1 (day 1) of the study, the animals are sorted into groups of ten mice, with individual tumor sizes of 100-1250 mm^3 Tumor size, in mm^3, is calculated from
where “w” is the width and “1” is the length, in mm, of the tumor. Tumor weight is estimated with the assumption that 1 mg is equivalent to 1 mm^3 of tumor volume. For the efficacy study dovitinib and its vehicle are each administered orally (p.o.), once daily for twenty eight consecutive days (qd x28). […] The dosing volume, 10 mL/kg (0.2 mL20 g mouse), is scaled to the weight of each animal as determined on the day of dosing, except on weekends when the previous BW was carried forward.
The study begins on Day 1 (D1). Efficacy is determined from tumor volume changes up to D28 (day 28). Efficacy is determined on D28.
For the purpose of statistical and graphical analyses, ΔTV, the difference in tumor volume between D1 (the start of dosing) and the endpoint day, was determined for each animal For each treatment group, the response on the endpoint day was calculated by the following relation: […]

primary ACC xenografts = assay: Tumor growth inhibition in primary ACC xenograft models; format: in vivo, immunodeficient mice; settings: FIGS. 6 and 7
Procedure: Once confirmed, established ACC xenograft models were developed until growth characteristic stabilized at which point viable stocks were collected and banked. According to one embodiment, the efficacy of dovitinib was evaluated in inhibiting tumor growth in certain ACC xenografts.

[2] = test system: ACCx5M1 xenograft tumor line; assay: ACCx5M1 adenoid cystic carcinoma xenograft tumor growth delay study in nude mice; format: in vivo
Text: The data set is comprised of the first observation that exceeded the study endpoint volume and the three consecutive observations that immediately preceded the attainment of the endpoint volume. The calculated TTE is usually less than the day on which an animal is euthanized for tumor size.

[3] = test system: Stage IV adenoid cystic carcinoma; assay: Dovitinib clinical trial, adenoid cystic carcinoma patient, radiologic imaging of target lesions; format: in vivo, human
Procedure: A patient with Stage IV adenoid cystic carcinoma was enrolled in a dovitinib clinical trial.
The patient was originally diagnosed 20 years ago with Stage II well differentiated ACC on the right cheek mucosa. Patient was previously treated using tumor resection of right cheek mucosa and right upper jaw and treated with radiation therapy, followed by chemotherapy with 5 FU (250 mg/m^2), ciplatin (40 mg/m^2), doxorubicin (20 or 27 mg/m^2) and cyclophosphamide (400 mg/m^2).
Recurrence of ACC occurred […], and patient was again treated using surgery of right cheek and submandibular Lymph nodes. Patient was subsequently treated with radiation therapy and followed by chemotherapy (TS-1, 120 mg/day).
Patient was enrolled into the dovitinib clinical trial and was treated with dovitinb 500 mg 5 days on 2 days off.

[4] = 500 mg 5 days on 2 days off, after 1 cycle of treatment (4 weeks), one patient

Q: With `CN1CCN(c2ccc3nc(-c4c(N)c5c(F)cccc5[nH]c4=O)[nH]c3c2)CC1` [dovitinib, 4-amino-5-fluoro-3-[6-(4-methylpiperazin-1-yl)-1H-benzimidazol-2-yl]-1H-quinolin-2-one] as the compound, how does the “median growth inhibition (tumor volume)” value [1] read?
A: The value was “significant median growth inhibition”.

Q: And the “inhibiting tumor growth in primary ACC xenografts” value (primary ACC xenografts)?
A: The value was “effective for inhibiting tumor growth; also recorded: surprisingly effective in inhibiting tumor”.

Q: What about the survival extension ([2]; 50 mg/kg monotherapy, Logrank test, P<0.05) of the same compound?
A: The survival extension was “significant”.

Q: And the “% TGD (tumor growth delay)” value ([2]; 50 mg/kg p.o. qd x64 monotherapy, study endpoint D64 or endpoint tumor volume)?
A: Its value is 49%.

Q: And the “reduction of total diameter of target lesions” value [3, 4]?
A: Its value is 26%.

Q: And the “reduction of tumor diameter on the right facial target lesion” value [3, 4]?
A: The value was 70%.

Q: And the “reducing ACC tumor growth in a human clinical trial” value ([3]; after 1 cycle of treatment)?
A: Its value is “surprisingly effective in reducing ACC tumor growth”.
